Experimental findings from patent US20100248229A1, “INVITRO HUMAN EMBRYONIC MODEL AND A METHOD THEREOF” (Stempeutics Research Private Limited, priority 2007, published 2010) are described below.

“Also recorded” adds a separate entry of the source.

Type in all cases: cell-based, human
In one series the test system is EBs. The experiment in a line: In vitro 3-D embryo implantation model: attachment and outgrowth of EBs. The text has this:
An in vitro 3-dimensional (3-D) model/system for embryo implantation employing EBs in place of embryos was developed. The EBs collected on different days were subjected to implantation/attachment on the artificial substratum/surface.
To make this artificial surface regular tissue culture dishes or organ culture dishes were coated with about 1 to 2 mm thick coating of 0.5 to 1% low melting or high melting agarose in DPBS. A few wells of about 1 to 2 mm diameter are created using sterile paper disks, preferable in the center of the dish, which were removed after the agarose solidifies. Alternatively a horizontal tube like structure can be created by casting the gel over a fine glass capillary, which can be withdrawn as the agarose solidifies. This cavity/depression or tube like structure of agarose is then coated with matrix proteins like matrigel, collagen, fibronectin, laminin, gelatin etc. The coated agarose dishes were also layered with mouse or human endometrial stromal cells obtained from primary cultures or cell lines. The EBs were placed carefully in the cavity created or flushed inside the tube using a bent pasture pipette. The cells were cultured in normal standard EB media.
The EBs adhere and outgrows spreading out as a monolayer of cells on the extracellular matrix. Some cells invaded the surrounding agarose by day 10. A failure to implant/outgrow within ten days on this matrix after exposure to the drug/molecule indicates an abnormality. However, some drugs/could also support/enhance the process of attachment and outgrowth of the EBs. These molecules were screened for several other possible applications, though these may not necessarily be safe for embryonic development.
Four day old EBs were cultured on agarose and fibronectin coated surfaces. […] However, as Y27632 supports and enhances outgrowth, the effect of this drug on the expression profiles of the lineage markers and other genes needs to be screened for evaluating effect on normal development.
The model consists of a culture plate which is coated with Low melting (0.5%) agarose, A well of various depths is created in the agarose by various means eg: putting sterile filter paper disks while casting the gel and removing them latter. The gel is then coated with extracellular matrix components like fibronectin, collagen, laminin, etc. Human endometrial stromal fibroblast cell line CRL4003 is grown on this extracellular matrix as a monolayer. The spherical embryoid bodies or embryo like entities at day 4.5 are injected or pipetted into these cavities. The attachment is allowed in a culture media regularly used for hESC culture, without FGF2 supplementation (FIG. 1).
3. Lineage induction studies: The embryoid bodies after attachment to the implantation site differentiates to all lineages.
Method: Spherical Cytic EBs were collected on day 4.5 and exposed to the continuous presence of Y27632 (various doses were used). […] The control cytic EB had however just attached with smaller area of outgrowth showing that this dose of Y27632 can help in initial implantation of embryo during pregnancy.

For series [1], the system named is EBs derived from hESC line HUES9. The series can be described thus: Cell counting: DAPI stained nuclei per EB. The following applies: 12.5 pg/ml for 48 hrs. As for the experimental part: Immunofluorescence and Cell counting: HESCs were grown on coverslips coated with MEFs and then fixed with 4% paraformaldehyde and 5% sucrose (Sigma) followed by permeabilization in 0.2% Triton X100 (Sigma). The slides were then incubated with primary antibodies 1:500 dilution of SSEA4 (Chemicon, Calif., USA), 5 ug/ml Nanog (Santa Cruz Biotechnology, CA, USA), 10 μg/ml Brachury (R&D Systems Inc. Minneapolis, USA), and 1.5 μg/ml HMGB1 (Sigma) overnight at 4° C. After washing thrice with PBS, fluorescein isothiocyanate/Texas red-labeled Secondary antibodies against the primary goat/rabbit/mouse were added as 1:500 dilutions and incubated for 2 hours. DAPI (Sigma) was used for nuclear staining and then washed with PBS. The negative controls were done without primary antibodies. Slides were mounted with DABCC (Sigma) and images were acquired using Nikon Eclipse 90i microscope (Nikon Corporation, Japan) and Image-Pro Express software (Media Cybernetics, Inc, Silver Spring, Md.). The results were then compared with the control cells (non-LPS treated EBs). To count the number of cells per EB, the number of DAPI stained nuclei were counted in 10 each of the control and LPS treated EBs.
Cell numbers and DNA fragmentation: For a count of the average number of cells per EB, the DAPI stained nuclei were counted in individual control and LPS treated EBs under epifluorescence. […]

Series [2] has the same test system. The series can be described thus: RT-PCR of germ lineage markers and HMGB1 in LPS-exposed HUES9 EBs. The source says:
EBs derived from the human embryonic stem cell (hESC) line HUES9 were exposed to 12.5 pg/ml of LPS for 48 hrs. The expression profile of the ectoderm, endoderm, mesoderm and trophectoderm lineage markers like βIII-tubulin, GATA4, BMP2, Brachury and β-hCG were studied, by RT-PCR and Immunofluorescence. Inhibition of mesoderm induction was confirmed by RT-PCR analysis for hANP, cTnT, ABCG2, GATA2, BMP4 and HAND1. Osteoblast differentiation was induced in the EBs, and confirmed by von Kosa and Alizarin red staining. A comet assay was also done to assess the degree of apoptosis in these EBs.
Exposure of EBs to LPS: EBs at day-2.5 were exposed to 12.5 pg/ml of Endotoxin/lipopolysaccharide (LPS) (Sigma) for 48 hrs supplemented in culture medium. The normal and the endotoxin treated EBs were harvested on day 4.5. Post exposure, the control and endotoxin treated EBs were divided in two groups. One group was lysed in TRIZOL for RNA isolation and the other group was fixed in 4% paraformaldehyde for immunofluorescence. The expression profile of the ectoderm, endoderm, mesoderm and trophectoderm lineage markers like PHI-tubulin, GATA4, BMP2, Brachury and β-hCG etc. were studied by RT-PCR and Immunofluorescence. The expression of the LPS-inducible and pluripotency related DNA binding protein HMGB1 was also studied in both the control and treated EBs.
RT-PCR: Total RNA from cells was isolated using TRIZOL-LS Reagent (Invitrogen) as per the manufacturer's protocol. Complementary DNA was synthesized using the SuperScript III First-Strand Synthesis System (Invitrogen) as per the manufacturer's instructions. Polymerase Chain Reaction (PCR) was carried out using 1U Tag DNA Polymerase (Sigma) and MgCl2 to a final concentration of 1.5 mM in a total volume of 25 μl/reaction. β-actin and GAPDH were used as the housekeeping controls. PCR cycles consisted of an initial denaturation at 95° C. for 5 minutes followed by 35 amplification cycles of denaturation at 94° C. for 45 seconds, annealing for 45 seconds, and extension at 72° C. for 45 seconds and final extension at 72° C. for 10 minutes.

[3] abbreviates: 12.5 pg/ml for 48 hrs, EBs harvested day 4.5.

For lipopolysaccharide [LPS], the “attachment and outgrowth of EBs” value in the series on EBs (four day old EBs on agarose and fibronectin coated surfaces, 15 pg/ml and above) was “completely inhibited”. In addition, in the series on EBs (high dose, 48 hrs), the “degeneration, attachment and outgrowth of EBs in implantation model” value was “degeneration of the EBs, and they failed to attach and outgrow”. In addition, in the series on EBs (lineage induction studies, in presence of the compound), the “ability of attached EBs to give rise to all lineages” value is on record as “compromised”. Besides, in series [1], the “average number of cells per EB, treated vs control” value is recorded as “not significantly different”. Moreover, in series [1] (control 142.33±48.41), the “average number of cells/EB (mean±SD)” value is reported as 175±75.47 cells/EB. In addition, the “expression of mesoderm markers (Brachury, BMP2, hANP, cTnT, ABCG2, GATA2, BMP4, HAND1)” value in series [2] (12.5 pg/ml for 48 hrs) is reported as “no expression; also recorded: selectively silenced; also recorded: specific silencing”. Moreover, in series [2] (setting [3]), the “mRNA expression of HMGB1, βIII-tubulin, GATA4 and β-hCG” value is “positive mRNA expression”; the “mRNA expression of mesoderm markers BMP4, GATA2, ABCG2, cTnT, hANP and HAND1” value is “absence of mRNA expressions”; the “mRNA expression of mesoderm markers Brachury and BMP2” value was “no mRNA expressions”. In addition, the “HMGB1 expression in EBs” value in series [2] (12.5 pg/ml for 48 hrs, not expressed in normal EBs) was “positive or induced expression; also recorded: induced”. Also, the “functional mesoderm formation in EBs” value in series [2] (exposure for 48 hrs) is “inhibited”.
